The source of these data is patent US7834019B2, “Substituted pyrazolo[3,4-d]pyrimidinone derivatives” (Banyu Pharmaceutical Co., Ltd., priority 2006, dated 2010).

This assay has as its system Cdc2 (Cdk1) tyrosine 15-phosphorylation. The assay is described as follows: Cdc2 (Cdk1) tyrosine 15-phosphorylation-inhibitory effect in NCI-H1299 cells + camptothecin (ELISA). It is filed as cell-based. The settings on record: Homo sapiens, camptothecin 200 nM for 16 hours, then test compound with nocodazole for 8 hours, read-out: Cdc2-Y15 Phosphorylation-Inhibitory Effect (H1299, + camptothecin) (EC50). From the text: Pharmaceutical Text 2 (Method of Determining Drug Potency in Cells (Cdc2 (Cdk1) Tyrosine 15-Phosphorylation-Inhibitory Effect))
Fetal bovine serum (FBS) was obtained from Morgate; media RPMI1640 and DMEM were from Invitrogen; camptothecin was from Sigma; gemcitabine was from Nippon Eli Lilly; nocodazole and protease inhibitor cocktail were from Sigma; rabbit anti-Cdc2 antibody and mouse anti-Cdc2 antibody were from Santa Cruz Biotechnology; rabbit anti-tyrosine 15-phosphorylated Cdc2 antibody and horseradish peroxidase-labeled anti-mouse IgG antibody were from Cell Signaling Technology; sure blue reserve TMB peroxidase substrate was from Kirkegaard and Perry Laboratories. […]
In the method of using NCI-H1299 cells, the cells were suspended in RPMI1640 containing 10% FBS, and the cell suspension was applied to a 96-well Nunclondelta-processed plastic plate (bought from Nunc), in an amount of 2000 cells/100 μL/well, in which the cells were incubated overnight in 5% CO2-95% air at 37° C. […] Cdc2 was determined through ELISA as follows: A rabbit anti-Cdc2 antibody solution, which had been diluted 200-fold with 50 mM carbonate-bicarbonate buffer (pH 9.6), was applied to a 96-well maxisorpimmuno plate (bought from Nunc), in an amount of 50 μL/well, and statically kept overnight at 4° C. so as to fix the antibody on the plate. […]
For orientation: ELISA stands for enzyme-linked immunosorbent assay.

The EC50 is the midpoint of the concentration-response curve. Turning to `C=CCn1c(=O)c2cnc(Nc3ccc(N4CCN(C)CC4)cc3)nc2n1-c1cccc(C(C)(C)O)n1` [Example 53, 2-allyl-1-[6-(1-hydroxy-1-methylethyl)pyridin-2-yl]-6-{[4-(4-methylpiperazin-1-yl)phenyl]amino}-1,2-dihydro-3H-pyrazolo[3,4-d]pyrimidin-3-one], the EC50 came to 68 nM.
